Reference: publication PMC11054735, “LDLR-Mediated Targeting and Productive Uptake of siRNA-Peptide Ligand Conjugates In Vitro and In Vivo” (Pharmaceutics, 2024)
Like-named read-outs stand apart in the source and are kept apart here.

Experiments:
[1] = incubation at 2 mM in freshly collected mouse blood at 37 °C; LC-MS/MS on plasma fractions; peptide described elsewhere; cited from earlier work
Text: Among the family of peptide-based vectors we identified, the VH4127 (cyclo[(D)-Cys-Met-Thz-Arg-Leu-Arg-Gly-Pen]) peptide ligand used in this study was described elsewhere. Briefly, it was obtained by high-throughput screening of phage display peptide libraries on engineered cell lines expressing the mouse and human LDLR, and was further chemically optimized for optimal LDLR-binding affinity and plasma stability. The VH4127 peptide contains three non-natural amino-acids D-Cys, Thz, and Pen (at positions 1, 3, and 8, respectively), and a disulfide bridge between D-Cys and Pen side ...

[2] = test system: mSOD1 mRNA in Neuro-2a cells; assay: Gene silencing by free uptake in Neuro-2a cells, RT-qPCR; type: cell-based, mouse; details: 1 µM, 3 days at 37 °C, DMEM with 1% fetal calf serum
Protocol: Neuro-2a cells were plated in a 48-well plate at 13,000 cells/well the day before the test. All siRNA and conjugates were incubated during 3 days at 37 °C with 1 µM of conjugate prepared in DMEM supplemented with 1% fetal calf serum. At the end of the incubation period, cells were washed once with D-PBS before RNA extraction. For in vitro free uptake experiments, the total RNA was extracted using the NucleoSpin RNA XS (Macherey Nagel, Hoerdt, France) according to the manufacturer’s recommendations. For transfection experiments the SuperScript™ IV CellsDirect™ cDNA Synthesis kit (Thermo Fisher Scientific) was used according to manufacturer’s recommendations. […] Aqueous phases were recovered and RNA extraction was performed with the RNeasy 96 QIAcube HT Kit (Qiagen) according to the manufacturer’s recommendations, in a QIACUBE HT instrument (Qiagen). […] For reverse transcription (RT), 500 ng of total RNA were used (except for cells treated with SuperScript™ IV CellsDirect™ cDNA Synthesis), and cDNA synthesis was performed using the High-Capacity RNA-to-cDNA™ kit (Thermo Fisher Scientific) according to the manufacturer’s recommendations. Real-time quantitative PCR (RT-qPCR) assays were performed using the CFX96 Touch Real-Time PCR Detection System (Bio-Rad, Hercules, CA, USA). […] Finally, gene expression ratios (compared to control samples) were determined. […] (A) Transfection of unconjugated siSOD1 and siSOD1-peptide conjugates on Neuro-2a cells at 30 nM. […] (B) Free uptake experiments of unconjugated siSOD1 and siSOD1-peptide conjugates on Neuro-2a cells at 1 µM. […] Each dot corresponds to the mean value obtained in independent experiments.

[3] = molecular target: T1, His-tagged recombinant mouse LDLR (extracellular domain, mLDLR-ECD) (Mus musculus, UniProt P35951); assay: SPR LDLR-binding affinity (multiple-cycle kinetics, equilibrium KD); details: SPR Biacore T200, 25 °C, mLDLR on NiHC1000m chip (700–2000 RU), MCK mode, 50 mM HEPES-NaOH pH 7.4 running buffer, analyte 0.6–640 nM or 0.6–40 nM, equilibrium response fit, means ± SD of n = 6 (triplicate analysis of 2 independent experiments), read-out: Affinities SPR (equilibrium dissociation constant, KD)
T1 construct: recombinant mouse LDLR (extracellular domain, mLDLR-ECD); purchased SinoBiological (Beijing, China)
T1 sequence (P35951 22-790 limits assumed): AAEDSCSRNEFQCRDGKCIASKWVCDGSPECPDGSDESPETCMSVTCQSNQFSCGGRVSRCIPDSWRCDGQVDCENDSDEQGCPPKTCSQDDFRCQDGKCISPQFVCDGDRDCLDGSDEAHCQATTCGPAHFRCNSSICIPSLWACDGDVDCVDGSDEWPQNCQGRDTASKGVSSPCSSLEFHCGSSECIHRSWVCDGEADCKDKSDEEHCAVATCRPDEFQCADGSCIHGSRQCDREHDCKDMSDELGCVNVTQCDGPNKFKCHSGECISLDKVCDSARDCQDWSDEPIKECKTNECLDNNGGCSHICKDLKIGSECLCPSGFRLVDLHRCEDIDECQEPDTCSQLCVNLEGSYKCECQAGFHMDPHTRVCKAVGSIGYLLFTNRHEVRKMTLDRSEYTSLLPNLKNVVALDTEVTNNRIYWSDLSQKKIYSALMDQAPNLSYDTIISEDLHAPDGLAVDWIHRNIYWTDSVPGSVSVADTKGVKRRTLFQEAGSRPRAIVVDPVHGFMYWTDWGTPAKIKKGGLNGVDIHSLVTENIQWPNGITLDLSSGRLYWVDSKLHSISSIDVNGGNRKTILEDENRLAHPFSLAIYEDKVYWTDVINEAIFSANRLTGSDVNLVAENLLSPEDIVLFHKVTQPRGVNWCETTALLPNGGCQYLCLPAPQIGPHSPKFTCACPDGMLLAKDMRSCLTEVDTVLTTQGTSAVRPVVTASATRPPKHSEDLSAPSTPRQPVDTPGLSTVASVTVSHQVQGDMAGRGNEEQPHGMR
Protocol: His-tagged recombinant mouse LDLR (extracellular domain, mLDLR-ECD) was purchased from SinoBiological (Beijing, China). SPR measurements were performed at 25 °C using a Biacore T200 apparatus (Cytiva) and 50 mM HEPES-NaOH pH 7.4, 150 mM NaCl, 50 μM EDTA, 0.005% Tween-20 (v/v), 10 mM Imidazole as running buffer. mLDLR was immobilized on a NiHC1000 m sensor chip (Xantec, Dusseldorf, Germany) at a density of around 10–30 fmol/mm^2. A control flowcell without mLDLR was used as reference. The multiple-cycle kinetic (MCK) method was applied to study molecular interactions of peptides and conjugates. Seven to 11 different concentrations of the analyte were prepared by two-fold dilutions in running buffer (0.6–640 nM or 0.6–40 nM) and successively injected over the flowcells during 120 s at 30 μL/min with a dissociation time of 300 s. Blank runs of running buffer were performed in the same conditions and subtracted from sample runs before evaluation. Equilibrium dissociation constants (KD) were calculated by plotting saturation binding curves using the equilibrium response at the plateau of all curves with BiaEvaluation version 2.0 software. All data are the means of six determinations (triplicate analysis of 2 independent experiments).

[4] = test system: SOD1 mRNA in liver; assay: In vivo gene silencing in mouse liver after i.v. administration, RT-qPCR; details: C57Bl/6JRj mice, single i.v. bolus 1 µmole/kg (15 mg/kg siRNA) in PBS, liver 7 days post-administration
Protocol: Wild-type male C57Bl/6JRj mice (Janvier Labs, Le Genest-Saint-Isle, France) aged 10–12 weeks old were used. All animal studies were approved by the ethics committee for animal experimentation (CEEA-N°14) and approved by French ministry of agriculture (MRC). […] Intravenous (i.v., lateral tail vein) administrations (15 mg/kg) were performed on conscious restrained mice. Following a 7-day observational period, animals were euthanized by an intraperitoneal overdose of Ketamin-Xylasine mixture (Sigma Aldrich, Saint-Quentin-Fallavier, France), and tissue samples were collected after extensive blood wash-out by intracardiac perfusion (Left ventricle, Flow rate 8 mL/min) of a saline solution (0.9%) and immediately stored at −20 °C in 10 vol NucleoProtect RNA stabilization reagent (Macherey-Nagel, Düren, Germany) before further RNA extraction and target mRNA quantification.
(§1) For in vitro free uptake experiments, the total RNA was extracted using the NucleoSpin RNA XS (Macherey Nagel, Hoerdt, France) according to the manufacturer’s recommendations. For transfection experiments the SuperScript™ IV CellsDirect™ cDNA Synthesis kit (Thermo Fisher Scientific) was used according to manufacturer’s recommendations. For in vivo experiments, mouse organs were crushed in 2 mL tubes pre-filled with ceramic mixture in Precellys®Cryolys® Evolution (Bertin, Montigny le Bretonneux, France) with a QIAZOL lysis buffer (Qiagen, Venlo, The Netherlands). A volume of 150 µL of chloroform (Sigma Aldrich) was added to 750 µL of tissue homogenate and a phenol/chloroform separation was performed using centrifugation for 15 min at 6000× g at 4 °C. Aqueous phases were recovered and RNA extraction was performed with the RNeasy 96 QIAcube HT Kit (Qiagen) according to the manufacturer’s recommendations, in a QIACUBE HT instrument (Qiagen). […] For reverse transcription (RT), 500 ng of total RNA were used (except for cells treated with SuperScript™ IV CellsDirect™ cDNA Synthesis), and cDNA synthesis was performed using the High-Capacity RNA-to-cDNA™ kit (Thermo Fisher Scientific) according to the manufacturer’s recommendations.
(§2) Real-time quantitative PCR (RT-qPCR) assays were performed using the CFX96 Touch Real-Time PCR Detection System (Bio-Rad, Hercules, CA, USA). […] The following primers were used: Mm01344233_g1 SOD1 (mouse), Mm02526700_g1 RpL13 (mouse), Mm01352366_m1 SDHA (mouse), Mm00457191_m1 PSMC4 (mouse). RpL13, SDHA, or PSMC4 served as internal controls for sample normalization, and the comparative cycle threshold method (2−ΔΔCt) was used for data quantification. Finally, gene expression ratios (compared to control samples) were determined.
The in vivo targeting and functional uptake potential of LDLR-binding siSOD1-peptide conjugates was evaluated as follows.
Mice were injected (i.v. lateral tail vein) with unconjugated siRNAs and siSOD1-peptide conjugates in PBS (15 mg/kg). Seven days post-administration mice were euthanized and perfused with saline solution (0.9% NaCl). Organs were collected to assess the SOD1 mRNA levels using RT-qPCR.

[5] = test system: mSOD1 mRNA in Neuro-2a cells; assay: Gene silencing after transfection (DharmaFECT 2) in Neuro-2a cells, RT-qPCR; type: cell-based, mouse; details: DharmaFECT 2, 30 nM, 24 h at 37 °C
Protocol: Neuro-2a cells were plated in a 96-well plate at 4000 cells/well one day before experiments. According to DharmaFECT general manufacturer’s protocol (Horizon Discovery), cells were transfected with a mix containing the DharmaFECT 2 and 30 nM of tested compound. […] At the end of the incubation period, Neuro-2a cells were washed once with D-PBS before RNA extraction.
as §1, §2
(A) Transfection of unconjugated siSOD1 and siSOD1-peptide conjugates on Neuro-2a cells at 30 nM. […] (B) Free uptake experiments of unconjugated siSOD1 and siSOD1-peptide conjugates on Neuro-2a cells at 1 µM. After 3 days at 37 °C, mSOD1 mRNA levels were quantified using RT-qPCR. Each dot corresponds to the mean value obtained in independent experiments. (C) Free uptake experiments of siSOD1-31, -35, -36, -37 conjugates with their respective negative controls siSOD1-31Sc, -35Sc, -36Sc, -37Sc on Neuro-2a cells at 1 µM.

Row | Molecule | In vitro plasma stability, estimated half-life [1] [h] | In Vitro KD on N2A, Free Uptake (mSOD1 mRNA knock-down) [2] | Kd ([3]; SD) [nM] | Kd [3] [nM] | In Vivo KD, Liver (SOD1 mRNA knock-down) [4] | In Vitro KD on N2A, Transfection (mSOD1 mRNA knock-down) [5] [%]
1 | CCC(=O)N[C@@H]1CSSC(C)(C)[C@@H](C(N)=O)NC(=O)CNC(=O)[C@H](CCCNC(=N)N)NC(=O)[C@H](CC(C)C)NC(=O)[C@H](CCCNC(=N)N)NC(=O)[C@@H]2CSCN2C(=O)[C@H](CCSC)NC1=O [VH4127, cyclo[(D)-Cys-Met-Thz-Arg-Leu-Arg-Gly-Pen]] | 4.27 |  |  |  |  | 
2 | Pr-K(N3)-PEG2-[cMThzRLRGPen]c-NH2 (disulfide) [siSOD1-31] |  | 55% | 104 ± 11.7 | 87 to 104 | 40% | >90
3 | Pr-K(N3)-PEG2-[cMThzRLRGPen]c-NH2 (disulfide) [siSOD1-33] |  |  | 12.8 ± 1.9 |  | ~50% | >90
4 | Pr-K(N3)-PEG2-[cMThzRLRGPen]c-NH2 (disulfide) [siSOD1-36] |  | 60% | 25 ± 1.2 |  | 30% | >90
5 | Pr-K(N3)-PEG2-[cMThzRLRGPen]c-NH2 (disulfide) [siSOD1-37] |  | 60% | 31.9 ± 1.6 |  | 35% | >90
6 | Pr-[cMThzRLRGPenG]c-OH (disulfide) [siSOD1-35] |  | improved KD effect compared to its non-binding control siSOD1-35sc | 11.3 ± 2.9 |  | 50% | >90
7 | Pr-[cMThzRLRGPen]c-PEG2-K(N3)-NH2 (disulfide) [siSOD1-32] |  | did not show improvement compared to the unconjugated 5′P-siSOD1 | 86.8 ± 17.1 | 87 to 104 | ~ 20% | 40
